From patent US4575560A, “Insecticidal diaminoguanidine hydrazone compounds” (American Cyanamid Company, priority 1985, dated 1986)

Key:
Southern Armyworm = test: Southern armyworm test, third-instar larvae on treated Sieva lima bean leaves; type: in vivo, Spodoptera eridania (Cramer); conditions: third-instar larvae
Protocol: Test formulations and procedures used for evaluation are as follows:
A. 100 mg of the test material is weighed, placed in a funnel over a 113 g narrow-mouth bottle, rinsed into the bottle with a 35 mL scoop of acetone, followed by a 35 mL scoop of water and another 35 mL scoop of acetone to yield 1000 ppm in 65% acetone. If the material is not soluble, it is broken up with a glass rod and used as a suspension.
B. This stock solution ("A") is used to make 300 ppm solutions or suspensions by pipetting 30 mL of "A" into a bottle containing 70 mL of 50% acetone to yield 300 ppm. Further dilutions in 50% acetone are made as required.
C. Tests requiring 10 ppm acetone solutions: 1 mL of "A" is pipetted into 99 mL of acetone to yield 10 ppm. Additional dilutions are made using 50% acetone as required.
Southern Armyworm--Spodoptera eridania (Cramer)
A Sieva lima bean plant with just the primary leaves expanded to 1.91 cm is dipped for three seconds with agitation in the "A" solution of 1000 ppm and set in the hood to dry. Following this, one leaf is placed in a 9 cm petri dish which has a moist filter paper in the bottom and 10 third-instar armyworm larvae about 1 cm long. This dish is covered and held at 80° F., and 50% r.h. After two days, mortality counts and estimates of the amount of feeding are made. Compounds showing partial kill and/or inhibition of feeding are held for an extra day for further observations.
All compounds showing activity as defined above are retested, using the second leaf on the bean plant, after an interval of seven days from original treatment, as an assay of residual activity.

[1] = test system: Tobacco Budworm 3rd Instar; test: Tobacco budworm secondary test, third-instar larvae on treated cotton cotyledons; type: in vivo, Heliothis virescens (Fabricus)

| Compound | Mortality Rating Southern Armyworm (Southern Armyworm; 100 ppm) | Mortality Rating Southern Armyworm (Southern Armyworm; 1000 ppm) | Mortality Rating Tobacco Budworm 3rd Instar ([1]; 1000 ppm) | reduced feeding (R) Tobacco Budworm 3rd Instar ([1]; 1000 ppm) | Mortality Rating Southern Armyworm (Southern Armyworm; 10 ppm) | Mortality Rating Tobacco Budworm 3rd Instar ([1]; 100 ppm) | reduced feeding (R) Tobacco Budworm 3rd Instar ([1]; 100 ppm) |
| --- | --- | --- | --- | --- | --- | --- | --- |
| N=C(NN=Cc1ccc(Br)cc1)NN=Cc1ccc(OC(F)(F)C(F)F)cc1 [Br / HCF2 CF2 O / B] | 9 (100%) | 9 (100%) | 0 (No effect) | R |  |  |  |
| N=C(NN=Cc1ccc(Br)cc1)NN=Cc1ccc(C(F)(F)F)cc1 [CF3 / Br / B] | 9 (100%) | 9 (100%) | 0 (No effect) | R | 9 (100%) |  |  |
| N=C(NN=Cc1ccc(Br)cc1)NN=Cc1ccc(C(F)(F)F)cc1 [CF3 / Br / S] |  | 9 (100%) | 0 (No effect) | R | 0 (No effect) | 0 (No effect) | R |
| CCCOC(=O)N(N=Cc1ccc(C(F)(F)F)cc1)C(=N)NN=Cc1ccc(C(F)(F)F)cc1 [CF3 / CF3 / -n-C3 H7] | 9 (100%) | 9 (100%) | 0 (No effect) |  | 4 (46-55%) |  |  |
| CCCCOC(=O)N(N=Cc1ccc(C(F)(F)F)cc1)C(=N)NN=Cc1ccc(C(F)(F)F)cc1 [CF3 / CF3 / -n-C4 H9] | 0 (No effect) | 9 (100%) | 0 (No effect) |  |  |  |  |
| N=C(NN=Cc1ccc(C(F)(F)F)cc1)N(N=Cc1ccc(C(F)(F)F)cc1)C(=O)OCCBr [CF3 / CF3 / BrCH2 CH2] | 0 (No effect) | 9 (100%) | 0 (No effect) |  | 0 (No effect) |  |  |
| CCOC(=O)N(N=Cc1ccc(C(F)(F)F)cc1)C(=N)NN=Cc1ccc(C(F)(F)F)cc1 [CF3 / CF3 / C2 H5, 3-[p-(trifluoromethyl)benzylidene]-2-{{[p-(trifluoromethyl)benzylidene]amino}amidino}carbazate] | 7 (76-85%) | 9 (100%) |  |  | 9 (100%) |  |  |
| C=CCOC(=O)N(N=Cc1ccc(C(F)(F)F)cc1)C(=N)NN=Cc1ccc(C(F)(F)F)cc1 [CF3 / CF3 / CH2CHCH2] | 9 (100%) | 9 (100%) | 0 (No effect) | R | 0 (No effect) | 0 (No effect) |  |
| COC(=O)N(N=Cc1ccc(C(F)(F)F)cc1)C(=N)NN=Cc1ccc(C(F)(F)F)cc1 [CF3 / CF3 / CH3] | 9 (100%) | 9 (100%) | 6 (66-75%) |  | 3 (36-45%) |  |  |
| CCOC(=O)N(N=Cc1ccc(Cl)cc1)C(=N)NN=Cc1ccc(Cl)cc1 [Cl / Cl / C2 H5] | 9 (100%) | 8 (86-99%) |  |  |  |  |  |
| N=C(NN=Cc1ccc(Cl)cc1)NN=Cc1ccc(OC(F)(F)C(F)F)cc1 [Cl / HCF2 CF2 O / S] |  |  | 0 (No effect) | R |  |  |  |
| COC(=O)N(N=Cc1ccc(OC(F)(F)C(F)F)cc1)C(=N)NN=Cc1ccc(OC(F)(F)C(F)F)cc1 [HCF2 CF2 O / HCF2 CF2 O / CH3] | 9 (100%) | 9 (100%) |  |  |  |  |  |
| N=C(NN=Cc1ccc(SC(F)(F)C(F)F)cc1)NN=Cc1ccc(SC(F)(F)C(F)F)cc1 [HCF2 CF2 S / S] |  |  |  |  | 6 (66-75%) |  |  |
